The subject of one assay is animal models. The following applies: cited from earlier work.
The subject of another assay is humans. The following applies: human clinical trials, even at several grams per day doses; cited from earlier work.
Assay [1] deals with fibrocystic disease of breast. Briefly: Treatment of fibrocystic disease of breast in a patient. It counts as in vivo, human. The procedure: (§1) The reduced form of TEMPOL (TEMPOL-H) or equivalent pharmacologically-active spin label/spintrap is prepared by mixing together 2 grams of TEMPOL or a pharmacologically effective amount of another spin-label or spin trap such as methynitrosopropane, 20 grams of ascorbic acid or other reducing compound in 100 ml of distilled water. The formulation is used as is. The solution is slightly-bitter. The formulation can be administered diluted in a suitable liquid such as juice, tea, or coffee. An equivalent dry form as 10 mg of tempol mixed with 100 mg of acsorbic acid or equivalent reducing substance can be easily prepared in capsule or tablet form.
(§2) One-half ml of the above solution, comprising 10 mg TEMPOL plus 100 mg ascorbic acid, was administered orally once a day to a 50 kg person with a long history for fibrocystic disease of breast so severe that surgeons had recommended mastectomy. The same person had also been previously-diagnoses with severe trigeminal neuralgia.
(§3) Long-term relief can be achieved, but the symptoms eventually reappear on cessation of treatment for a few weeks.

Another assay deals with trigeminal neuralgia. The assay can be described thus: Treatment of trigeminal neuralgia in a patient. Type of assay: in vivo, human. The following applies: for trigeminal neuralgia (summary statement): humans, route and dose not stated. As to the method:
as §1, §2, §3

Assay [2] deals with premenstrual dysphoric disorder. The assay can be described thus: Treatment of premenstrual dysphoric disorder. The conditions noted are these: for premenstrual dysphoric syndrome and its associated comorbid symptoms (summary statement): humans, route and dose not stated. It counts as in vivo, human. As to the method:
as §1, §2

A further assay has as its system migraine headache. The assay can be described thus: Treatment of migraine headache. It counts as in vivo, human. The conditions noted are these: for migraine headache (summary statement): humans, route and dose not stated. The procedure: as §1, §2
For the next assay, the system named is post-herpetic neuropathy. Briefly: Treatment of post-herpetic neuropathy / neuralgia. Type of assay: in vivo, human. The conditions noted are these: for post-herpetic neuralgia (summary statement): humans, route and dose not stated. The procedure:
as §1
One-half ml of the above solution was orally-administered daily to a middle-aged person with chronic post-herpetic neuropathy of the feet, peridontitis, and gingivitis.

Assay [3] concerns gingivitis and peridontitis. Briefly: Treatment of gingivitis and peridontitis. It counts as in vivo, human. The conditions noted are these: for peridontitis and gingivitis (summary statement): humans, route and dose not stated.
In another assay the test system is herpes zoster lesions. The assay can be described thus: Treatment of herpes zoster lesions. It counts as in vivo, human. The following applies: for herpes zoster lesions (summary statement): humans, route and dose not stated.
A further assay deals with influenza. The assay can be described thus: Amelioration of influenza symptomology. Type of assay: in vivo, human. The following applies: for influenza (summary statement): humans, route and dose not stated.
In the next assay the test system is rectal hemorrhoids. The assay can be described thus: Treatment of rectal hemorrhoids. Type of assay: in vivo, human. The following applies: for rectal hemorrhoids (summary statement): humans, route and dose not stated. As to the method: Boil until methycellulose dissolves (5-10 minutes)
Alternative is I million-dalton MW 1% propylcellulose, which dissolves overnight without boiling.
Add 5 grams TEMPOL with stirring

In another assay the test system is cyclic vomiting syndrome. Briefly: Treatment of cyclic vomiting syndrome. Type of assay: in vivo, human. The conditions noted are these: the above treatment (10 mg TEMPOL plus 100 mg ascorbic acid orally once a day).
In assay [4] the test system is peripheral vascular disease. The assay can be described thus: Treatment of peripheral vascular disease. Type of assay: in vivo, human. The following applies: the above treatment (10 mg TEMPOL plus 100 mg ascorbic acid orally once a day).
In the next assay the test system is rhinositis. The assay can be described thus: Local nasal treatment of rhinositis. It counts as in vivo, human. The conditions noted are these: 0.1 ml applied locally to the nasal cavity.
Where [5] appears, read: 10 mg TEMPOL plus 100 mg ascorbic acid orally once a day, same patient.
[6] abbreviates: one-half ml of solution orally daily, middle-aged male.
The mark [7] stands for this setting: topical application once a day to the affected area.

Entries after “also recorded” stand apart in the source; their conditions may differ.

Take `CC(C)(C)[N+]([O-])=Cc1ccc(S(=O)(=O)[O-])cc1S(=O)(=O)[O-].[Na+].[Na+]` [NXY-059, disulfonyl PBN]: in the assay on animal models, the “neuroprotective efficacy in animal models” value is “effective in animal models”. For the same compound, in the assay on humans, the “neuroprotective efficacy in humans” value is recorded as “not in humans; also recorded: perpetual failure”.
Consider `CC1(C)CC(O)CC(C)(C)N1[O]` [TEMPOL, 4-hydroxy-2,2,6,6-tetramethylpiperidin-1-yloxy], for which the “efficacy of Tempol itself (unreduced)” value in assay [1] (same doses as the reduced formulation) was “effective at the same doses”. Also, in the assay with trigeminal neuralgia, the “trigeminal neuralgia (summary statement)” value is “ameliorate”. The “premenstrual dysphoric syndrome and its associated comorbid symptoms (summary statement)” value in [2] was “ameliorate”. Also, the “migraine headache (summary statement)” value with migraine headache was “prevent and treat”. Further, the “post-herpetic neuralgia (summary statement)” value in the assay with post-herpetic neuropathy is “prevent and treat”. The “gingivitis and peridontitis, local intraoral treatment” value in assay [3] (0.5 ml of 5% TEMPOL liquid or gel applied to the affected gums for one to three days) is “reducing tenderness and bleeding”. The “peridontitis and gingivitis (summary statement)” value in [3] is listed as “ameliorate”. Moreover, in the assay on herpes zoster lesions, the “herpes zoster lesions (summary statement)” value is “prevent and treat”. For the same compound, the “influenza (summary statement)” value in the assay with influenza is reported as “ameliorate”. Besides, the “symptoms of rectal hemorrhoids” value in the assay with rectal hemorrhoids (0.2 ml of 5% solution (methyl cellulose gel) transrectally for one to three days) is “ameliorates the symptoms of rectal hemorrhoids, especially pain, swelling, and bleeding”. Also, in the assay with rectal hemorrhoids, the “rectal hemorrhoids (summary statement)” value was “ameliorate”.
Turning to `CC1(C)CC(O)CC(C)(C)N1O` [TEMPOL-H], the “time until first results appeared” value in assay [1] (10 mg TEMPOL plus 100 mg ascorbic acid orally once a day, one patient) is recorded as 1-2 weeks. In addition, in assay [1] (10 mg TEMPOL plus 100 mg ascorbic acid orally once a day, one patient, mammographic imaging and digital palpation), the “regression / shrinkage of the breast cysts” value is “almost complete regression; also recorded: shrinkage of the breast cysts”. Besides, in assay [1] (resumption after cessation of treatment for a few weeks, same oral dose), the “breast cysts upon resumption of treatment” value is recorded as “again drastically shrink”. In addition, in the assay on trigeminal neuralgia (setting [5]), the “effect on long-standing trigeminal neuralgia” value was “alleviated and prevented”. Further, the “trigeminal neuralgia (summary statement)” value in the assay with trigeminal neuralgia is given as “ameliorate”. In assay [2] (setting [5]), the “symptoms of anxiety/depression and mood swings outside the premenstrual time period” value is “Efficacy was observed”; the “symptoms of premenstrual dysphoric disorder including comorbidity” value was “alleviates and prevents”. Besides, the “premenstrual dysphoric syndrome and its associated comorbid symptoms (summary statement)” value in assay [2] is listed as “ameliorate”. Further, in the assay on migraine headache, the “migraine headache (summary statement)” value is “prevent and treat”. Also, in the assay on migraine headache (the above treatment (10 mg TEMPOL plus 100 mg ascorbic acid orally once a day)), the “migraine headache prevention and symptoms” value was “both prevents migraine headache and ameliorates the symptoms”. In addition, the cyclic vomiting syndrome entry with cyclic vomiting syndrome was “prevents, controls, and ameliorates”. Also, in assay [4], the peripheral vascular disease entry was “controls, and ameliorates”. The “post-herpetic neuralgia (summary statement)” value with post-herpetic neuropathy is “prevent and treat”. Also, the “symptomatic relief of chronic post-herpetic neuropathy of the feet” value in the assay on post-herpetic neuropathy (setting [6]) is listed as “Symptomatic relief of all of these was experienced within one week”. Also, the “post-herpetic neuralgia, topical application” value in the assay on post-herpetic neuropathy (setting [7]) is “also effective”. The “peridontitis and gingivitis (summary statement)” value in assay [3] is recorded as “ameliorate”. For the same compound, the “symptomatic relief of peridontitis and gingivitis” value in assay [3] (setting [6]) is listed as “Symptomatic relief of all of these was experienced within one week”. Besides, the “gingivitis and peridontitis, topical application” value in [3] (topical application of the reduced TEMPOL solution) is on record as “also effective”. Also, the “herpes zoster lesions (summary statement)” value in the assay with herpes zoster lesions was “prevent and treat”. Also, the “herpes zoster lesions, topical application” value in the assay on herpes zoster lesions (setting [7]) is given as “also effective”. Also, the “influenza (summary statement)” value in the assay with influenza is on record as “ameliorate”. In addition, in the assay on influenza (one-half ml orally once or twice daily), the symptoms of influenza result is on record as “significantly-ameliorates”. For the same compound, the rhinositis entry with rhinositis was “ameliorates rhinositis”. In addition, in the assay on rectal hemorrhoids, the “rectal hemorrhoids (summary statement)” value is given as “ameliorate”.

Values taken from patent US20120115905A1, “Nitrone, Nitroso, and Nitroxide Spintraps and Spin Labels and Their Hydroxylamines” (priority 2010, published 2012).
